From patent US6444617B1, “Fused-heterocycle dicarboxylic acid diamide derivatives or salts thereof, herbicide and usage thereof” (Nihon Nohyaku Co., Ltd., priority 1998, dated 2002)

Experiments:
Type in all cases: in vivo
[1] = system: soybean plant; assay: Test Example 4: phytotoxicity to upland crop plants, treatment after emergence; settings: dosage 5 kg/ha, sprayed after emergence, judged 14 days after treatment
Method in brief: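 Weeds, soybean and wheat were sown in soil-filled vats, covered with soil and grown to set leaf stages before a post-emergence spray of an agent containing the compound at a prescribed concentration. Weed-killing rate and crop phytotoxicity were assessed 14 days after treatment.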

[2] = system: wheat; assay: as above; settings: dosage 5 kg/ha, sprayed after emergence, judged 14 days after treatment
Method in brief: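 Seeds sown in soil and covered. Plants raised to specified leaf stages. Agent with test compound at a prescribed concentration sprayed. Herbicidal effect and crop damage scored after 14 days as weed-killing rate.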

[3] = system: bulrush (Scirpus juncoides Roxb.); assay: Test Example 2: herbicidal effect on paddy field weeds after emergence; settings: Dosage 5 kg/ha; one-leaved stage; 21 days after treatment
Method in brief: (§1)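 Weeds were sown in 1/10000 are pots of soil flooded to paddy conditions and grown to the one-leaf stage, then the soil was treated with a solution of compound at a predetermined dosage.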

[4] = system: monochoria (Monochoria vaginalis Presl); assay: as above; settings: Dosage 5 kg/ha; one-leaved stage; 21 days after treatment
Method in brief: as §1

[5] = system: barnyard grass (Echinochloa crus-galli Beauv.); assay: as above; settings: Dosage 5 kg/ha; one-leaved stage; 21 days after treatment
Method in brief: as §1

[6] = system: bulrush (Scirpus juncoides Roxb.); assay: Test Example 1: herbicidal effect on paddy field weeds before emergence; settings: Dosage 5 kg/ha
Method in brief: (§2)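 Soil in pots is brought to paddy state and seeded with barnyard grass and bulrush; before germination, the soil receives a predetermined dosage of test compound in solution. After twenty-one days, control rate relative to untreated pots is calculated and graded.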

[7] = system: barnyard grass (Echinochloa crus-galli Beauv.); assay: as above; settings: Dosage 5 kg/ha
Method in brief: as §2

[8] = system: velvetleaf (Abutilon theophtasti L.), At; assay: Test Example 3: herbicidal effect on upland weeds before emergence; settings: dosage 5 kg/ha
Method in brief: (§3)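 Test compound, formulated as a liquid at a fixed concentration, is sprayed before weed emergence. Two weeks later, kill rate is derived and herbicidal activity is rated.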

[9] = system: bird's eye speedwell (Veronica persica Poir.), Vp; assay: as above; settings: dosage 5 kg/ha
Method in brief: as §3

[10] = system: cocklebur (Xanthium strumarium L.), Xs; assay: as above; settings: dosage 5 kg/ha
Method in brief: as §3

[11] = system: cleavers (Galium aparine L.), Ga; assay: as above; settings: dosage 5 kg/ha
Method in brief: as §3

[12] = system: barnyard grass (Echinochloa crus-galli Beauv.), Ec; assay: as above; settings: dosage 5 kg/ha
Method in brief: as §3

[13] = system: forxtail grass (Alopecurus aequalis var. amurensis Ohwi), Am; assay: as above; settings: foxtail grass, dosage 5 kg/ha
Method in brief: as §3

[14] = system: soybean plant (So); assay: Test Example 3: phytotoxicity to upland crop plants, treatment before emergence; settings: dosage 5 kg/ha
Method in brief: (§4)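 Compound formulated as a liquid agent at a prescribed concentration is sprayed before crop emergence. After fourteen days, damage to soybean and wheat is examined and rated by a judgment criterion.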

[15] = system: wheat (Wh); assay: as above; settings: dosage 5 kg/ha
Method in brief: as §4

[16] = system: velvetleaf (Abutilon theophtasti L.), At; assay: Test Example 4: herbicidal effect on upland weeds after emergence; settings: dosage 5 kg/ha; sprayed after emergence; judged 14 days after treatment
Method in brief: (§5)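 Scores of weed-killing rate, with crop phytotoxicity, come from inspection 14 days after plants in soil vats, grown to specified leaf stages, are sprayed with a formulation holding the compound at a prescribed concentration.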

[17] = system: bird's eye speedwell (Veronica persica Poir.), Vp; assay: as above; settings: dosage 5 kg/ha; sprayed after emergence; judged 14 days after treatment
Method in brief: as §5

[18] = system: cocklebur (Xanthium strumarium L.), Xs; assay: as above; settings: dosage 5 kg/ha; sprayed after emergence; judged 14 days after treatment
Method in brief: as §5

[19] = system: cleavers (Galium aparine L.), Ga; assay: as above; settings: dosage 5 kg/ha; sprayed after emergence; judged 14 days after treatment
Method in brief: as §5

[20] = system: barnyard grass (Echinochloa crus-galli Beauv.), Ec; assay: as above; settings: dosage 5 kg/ha; sprayed after emergence; judged 14 days after treatment
Method in brief: as §5

[21] = system: forxtail grass (Alopecurus aequalis var. amurensis Ohwi), Am; assay: as above; settings: dosage 5 kg/ha; sprayed after emergence; judged 14 days after treatment
Method in brief: as §5

Row | Compound | Phytotoxicity So [1] | Phytotoxicity Wh [2] | Post-emergence treatment Bulrush (herbicidal effect) [3] | Post-emergence treatment Monochoria (herbicidal effect) [4] | Post-emergence treatment Barnyard grass (herbicidal effect) [5] | Pre-emergence treatment Bulrush (herbicidal effect) [6] | Pre-emergence treatment Barnyard grass (herbicidal effect) [7] | Herbicidal effect At [8] | Herbicidal effect Vp [9] | Herbicidal effect Xs [10] | Herbicidal effect Ga [11] | Herbicidal effect Ec [12] | Herbicidal effect Am [13] | Phytotoxicity So [14] | Phytotoxicity Wh [15] | Herbicidal effect At [16] | Herbicidal effect Vp [17] | Herbicidal effect Xs [18] | Herbicidal effect Ga [19] | Herbicidal effect Ec [20] | other results
1 | Cc1c(Cl)cccc1NC(=O)c1cc2ccoc2nc1C(=O)NC1CCCC1 [compound 796] | 4 (Crop-killing rate is 90-99%.) | 4 (Crop-killing rate is 90-99%.) | 5 (Weed-killing rate is 100%.) | 5 (Weed-killing rate is 100%.) | 5 (Weed-killing rate is 100%.) | 5 (Weed-killing rate is 100%.) | 5 (Weed-killing rate is 100%.) | 5 (Weed-killing rate is 100%.) | 5 (Weed-killing rate is 100%.) | 4 (Weed-killing rate is 90-99%.) | 5 (Weed-killing rate is 100%.) | 5 (Weed-killing rate is 100%.) | 5 (Weed-killing rate is 100%.) | 4 (Crop-killing rate is 90-99%.) | 5 (Crop-killing rate is 100%.) | 5 (Weed-killing rate is 100%.) | 5 (Weed-killing rate is 100%.) | 4 (Weed-killing rate is 90-99%.) | 4 (Weed-killing rate is 90-99%.) | 5 (Weed-killing rate is 100%.) | Herbicidal effect Am [21]: 5 (Weed-killing rate is 100%.)
2 | CCNC(=O)c1nc2sccc2cc1C(=O)Nc1c(CC)ccc(Cl)c1CC [compound 798] | 4 (Crop-killing rate is 90-99%.) | 5 (Crop-killing rate is 100%.) | 5 (Weed-killing rate is 100%.) | 5 (Weed-killing rate is 100%.) | 5 (Weed-killing rate is 100%.) | 5 (Weed-killing rate is 100%.) | 5 (Weed-killing rate is 100%.) | 5 (Weed-killing rate is 100%.) | 5 (Weed-killing rate is 100%.) | 5 (Weed-killing rate is 100%.) | 5 (Weed-killing rate is 100%.) | 5 (Weed-killing rate is 100%.) | 5 (Weed-killing rate is 100%.) | 4 (Crop-killing rate is 90-99%.) | 5 (Crop-killing rate is 100%.) | 5 (Weed-killing rate is 100%.) | 5 (Weed-killing rate is 100%.) | 5 (Weed-killing rate is 100%.) | 5 (Weed-killing rate is 100%.) | 5 (Weed-killing rate is 100%.) | Herbicidal effect Am [21]: 5 (Weed-killing rate is 100%.)
3 | CCCNC(=O)c1nc2sccc2cc1C(=O)Nc1c(CC)ccc(Cl)c1CC [compound 799] | 5 (Crop-killing rate is 100%.) | 5 (Crop-killing rate is 100%.) | 5 (Weed-killing rate is 100%.) | 5 (Weed-killing rate is 100%.) | 5 (Weed-killing rate is 100%.) | 5 (Weed-killing rate is 100%.) | 5 (Weed-killing rate is 100%.) | 5 (Weed-killing rate is 100%.) | 5 (Weed-killing rate is 100%.) | 5 (Weed-killing rate is 100%.) | 5 (Weed-killing rate is 100%.) | 5 (Weed-killing rate is 100%.) | 5 (Weed-killing rate is 100%.) | 5 (Crop-killing rate is 100%.) | 5 (Crop-killing rate is 100%.) | 5 (Weed-killing rate is 100%.) | 5 (Weed-killing rate is 100%.) | 5 (Weed-killing rate is 100%.) | 5 (Weed-killing rate is 100%.) | 5 (Weed-killing rate is 100%.) | Herbicidal effect Am [21]: 5 (Weed-killing rate is 100%.)
4 | Cc1c(Cl)cccc1NC(=O)c1cc2ccsc2nc1C(=O)NC1CCCC1 [compound 811] | 4 (Crop-killing rate is 90-99%.) | 5 (Crop-killing rate is 100%.) | 5 (Weed-killing rate is 100%.) | 5 (Weed-killing rate is 100%.) | 5 (Weed-killing rate is 100%.) | 5 (Weed-killing rate is 100%.) | 5 (Weed-killing rate is 100%.) | 5 (Weed-killing rate is 100%.) | 5 (Weed-killing rate is 100%.) | 5 (Weed-killing rate is 100%.) | 5 (Weed-killing rate is 100%.) | 5 (Weed-killing rate is 100%.) | 5 (Weed-killing rate is 100%.) | 4 (Crop-killing rate is 90-99%.) | 5 (Crop-killing rate is 100%.) | 5 (Weed-killing rate is 100%.) | 5 (Weed-killing rate is 100%.) | 4 (Weed-killing rate is 90-99%.) | 4 (Weed-killing rate is 90-99%.) | 5 (Weed-killing rate is 100%.) | Herbicidal effect Am [21]: 5 (Weed-killing rate is 100%.)
